The values below come from patent US20260022096A1, “NOVEL SULFONAMIDES AND THEIR USE AS NEUROPROTECTIVE AND/OR NEURORESTORATIVE AGENTS” (GENECODE, priority 2022, published 2026).

For this assay, the target named is T1, GFRα1-RET (Homo sapiens, UniProt P56159).
T1 construct: expressed in transfected cells; host or cells: MG87 murine fibroblasts, stably transfected
T1 sequence (P56159 25-429 limits assumed): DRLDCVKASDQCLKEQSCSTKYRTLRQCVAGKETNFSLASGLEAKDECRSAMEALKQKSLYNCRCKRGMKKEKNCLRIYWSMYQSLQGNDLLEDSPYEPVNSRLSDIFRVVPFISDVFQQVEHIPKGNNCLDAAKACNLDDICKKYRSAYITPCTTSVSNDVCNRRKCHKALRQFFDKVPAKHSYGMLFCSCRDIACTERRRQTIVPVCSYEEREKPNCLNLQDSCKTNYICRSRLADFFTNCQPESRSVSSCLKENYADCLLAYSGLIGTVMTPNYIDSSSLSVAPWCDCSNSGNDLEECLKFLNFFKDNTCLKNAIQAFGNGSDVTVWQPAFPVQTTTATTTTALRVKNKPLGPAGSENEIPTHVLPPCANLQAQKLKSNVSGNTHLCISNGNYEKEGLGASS
Kind of assay: Elk1 reporter-gene (luciferase) assay in cells expressing GFRα1-RET. It counts as cell-based. The following applies: MG87 murine fibroblasts stably transfected with PathDetect Elk-1, GFRα1 and RET, 6 concentrations, agonist/activator activity. The procedure:
For ECso determination, a dose-response test was performed using 6 concentrations of each tested compound. Dose-response curves were fitted using the sigmoidal dose-response (variable slope) analysis in GraphPad Prism program (Graph Pad Inc) and ECso of agonist/activator activity was calculated. Dose-response experiments were all performed in duplicate, two times independently.

For orientation: EC50 means the concentration at which the effect is half-maximal.

Compound `CN(C(C)(C)C)S(=O)(=O)c1cc(Cl)c(OCc2ccccc2)c(N2[C@@H]3CC[C@H]2CN(C(=O)c2ccc(F)cc2Cl)C3)c1` [compound 136, 4-benzyloxy-N-tert-butyl-3-chloro-5-[(1S,5R)-3-(2-chloro-4-fluoro-benzoyl)-3,8-diazabicyclo[3.2.1]octan-8-yl]-N-methyl-benzenesulfonamide] returned an EC50 of under 1 µM.

`COCCOc1c(Cl)cc(S(=O)(=O)N(C)C(C)(C)C)cc1N1[C@@H]2CC[C@H]1CN(C(=O)c1ccc(F)cc1Cl)C2` [compound 135, N-tert-butyl-3-chloro-5-[(1S,5R)-3-(2-chloro-4-fluoro-benzoyl)-3,8-diazabicyclo[3.2.1]octan-8-yl]-4-(2-methoxyethoxy)-N-methyl-benzenesulfonamide] displayed an EC50 of under 1 µM.

`CC(C)(O)c1ccc(S(=O)(=O)N2CCC(c3ccccc3)CC2)cc1N1[C@@H]2CC[C@H]1CN(C(=O)c1ccc(F)cc1Cl)C2` [compound 072, (2-chloro-4-fluoro-phenyl)-[(1S,5R)-8-[2-(1-hydroxy-1-methyl-ethyl)-5-[(4-phenyl-1-piperidyl)sulfonyl]phenyl]-3,8-diazabicyclo[3.2.1]octan-3-yl]methanone]: the EC50 was in the range of 1 to 10 µM.

Regarding `O=C(c1ccc(F)cc1Cl)N1C[C@H]2CC[C@@H](C1)N2c1cc(S(=O)(=O)N2CCC(c3ccccc3)CC2)ccc1O` [compound 063, (2-chloro-4-fluoro-phenyl)-[(1S,5R)-8-[2-hydroxy-5-[(4-phenyl-1-piperidyl)sulfonyl]phenyl]-3,8-diazabicyclo[3.2.1]octan-3-yl]methanone], the EC50 was under 1 µM.

In the case of `O=C(c1ccc(F)cc1Cl)N1C[C@H]2CC[C@@H](C1)N2c1cc(S(=O)(=O)N2CCC(c3ccccc3)CC2)ccc1CO` [compound 070, (2-chloro-4-fluoro-phenyl)-[(1S,5R)-8-[2-(hydroxymethyl)-5-[(4-phenyl-1-piperidyl)sulfonyl]phenyl]-3,8-diazabicyclo[3.2.1]octan-3-yl]methanone], the EC50 is under 1 µM.

With `COc1ccc(S(=O)(=O)N2CCN([C@H]3C[C@@H]3c3ccc(F)cc3)CC2)cc1N1[C@@H]2CC[C@H]1CN(C(=O)c1ccc(F)cc1Cl)C2` (racemic) [compound 044, (2-chloro-4-fluoro-phenyl)-[(1S,5R)-8-[5-[4-[(1SR,2RS)-2-(4-fluorophenyl)cyclopropyl]piperazin-1-yl]sulfonyl-2-methoxy-phenyl]-3,8-diazabicyclo[3.2.1]octan-3-yl]methanone], the EC50 is under 1 µM.

The compound `CC(NS(=O)(=O)c1cc(Cl)c(O)c(N2C3CCC2CN(C(=O)c2ccc(F)cc2Cl)C3)c1)C(F)(F)F` (racemic) [compound 104, 3-chloro-5-[(1S,5R)-3-(2-chloro-4-fluoro-benzoyl)-3,8-diazabicyclo[3.2.1]octan-8-yl]-4-hydroxy-N-[(1SR)-2,2,2-trifluoro-1-methyl-ethyl]benzenesulfonamide] registered an EC50 of 1 to 10 µM.

The compound `CC(C)(C)NS(=O)(=O)c1cc(N2[C@@H]3CC[C@H]2CN(C(=O)c2ccc(F)cc2Cl)C3)c(O)c(C(F)(F)F)c1` [compound 089] registered a concentration for a half-maximal effect (EC50) of 1 to 10 µM.

In turn, `COc1ccc(S(=O)(=O)NC(C)(C)C)cc1N1[C@@H]2CC[C@H]1CN(C(=O)c1cc(F)c(F)cc1Cl)C2` [compound 129, N-tert-butyl-3-[(1S,5R)-3-(2-chloro-4,5-difluoro-benzoyl)-3,8-diazabicyclo[3.2.1]octan-8-yl]-4-methoxy-benzenesulfonamide] yielded an EC50 of under 1 µM.

`COc1ccc(S(=O)(=O)N2CCN(CC(O)c3ccc(F)cc3)CC2)cc1N1C2CCC1CN(C(=O)c1ccc(F)cc1Cl)C2` (racemic) [compound 128, (2-chloro-4-fluoro-phenyl)-[(1S,5R)-8-[5-[4-[(2RS)-2-(4-fluorophenyl)-2-hydroxy-ethyl]piperazin-1-yl]sulfonyl-2-methoxy-phenyl]-3,8-diazabicyclo[3.2.1]octan-3-yl]methanone] returned an EC50 of under 1 µM.

Compound `Cc1cc(S(=O)(=O)NC(C)(C)C)cc(N2[C@@H]3CC[C@H]2CN(C(=O)c2ccc(F)cc2Cl)C3)c1O` [compound 093] returned an EC50 of under 1 µM.

In turn, `C[C@@H]1CN(C(=O)c2ccc(F)cc2Cl)CCN1c1cc(S(=O)(=O)NC(C)(C)C)cc(Cl)c1O` [compound 111, N-tert-butyl-3-chloro-5-[(2R)-4-(2-chloro-4-fluoro-benzoyl)-2-methyl-piperazin-1-yl]-4-hydroxy-benzenesulfonamide] displayed a 50% effective concentration (EC50) of under 1 µM.

`O=C(c1ccc(F)cc1Cl)N1C[C@H]2CC[C@@H](C1)N2c1cc(S(=O)(=O)N2CCC(c3ccccc3)CC2)cc(Cl)c1O` [compound 098] came in with an EC50 of under 1 µM.

For the compound `CNC1CN(c2ccc(S(=O)(=O)N3CCC(c4ccccc4)CC3)cc2N2[C@@H]3CC[C@H]2CN(C(=O)c2ccc(F)cc2Cl)C3)C1` [compound 123, (2-chloro-4-fluoro-phenyl)-[(1S,5R)-8-[2-[3-(methylamino)azetidin-1-yl]-5-[(4-phenyl-1-piperidyl)sulfonyl]phenyl]-3,8-diazabicyclo[3.2.1]octan-3-yl]methanone], the EC50 was under 1 µM.

The compound `CC(C)(C)NS(=O)(=O)c1cc(Cl)c(O)c(N2[C@@H]3CC[C@H]2CN(C(=O)c2ccc(F)cc2Cl)C3)c1F` [compound 139, N-tert-butyl-5-chloro-3-[(1S,5R)-3-(2-chloro-4-fluoro-benzoyl)-3,8-diazabicyclo[3.2.1]octan-8-yl]-2-fluoro-4-hydroxy-benzenesulfonamide] had an EC50 of under 1 µM.

Compound `O=C(c1ccc(F)cc1Cl)N1C[C@H]2CC[C@@H](C1)N2c1cc(S(=O)(=O)N2CCC(c3ccccc3)CC2)cc2c1OCO2` [compound 117, (2-chloro-4-fluoro-phenyl)-[(1S,5R)-8-[6-[(4-phenyl-1-piperidyl)sulfonyl]-1,3-benzodioxol-4-yl]-3,8-diazabicyclo[3.2.1]octan-3-yl]methanone] showed an EC50 of under 1 µM.

For `COc1ccc(S(=O)(=O)N2CCCC(Cc3ccccc3)C2)cc1N1C2CCC1CN(C(=O)c1ccc(F)cc1Cl)C2` (racemic) [compound 011, [(1S,5R)-8-[5-[[(3RS)-3-benzyl-1-piperidyl]sulfonyl]-2-methoxy-phenyl]-3,8-diazabicyclo[3.2.1]]octan-3-yl]-(2-chloro-4-fluoro-phenyl)methanone], the EC50 was under 1 µM.

`O=C(c1ccc(F)cc1Cl)N1C[C@H]2CC[C@@H](C1)N2c1cc(S(=O)(=O)N2CCC(c3ccccc3)CC2)ccc1Cl` [compound 066, (2-chloro-4-fluoro-phenyl)-[(1S,5R)-8-[2-chloro-5-[(4-phenyl-1-piperidyl)sulfonyl]phenyl]-3,8-diazabicyclo[3.2.1]octan-3-yl]methanone]: the concentration giving a half-maximal response (EC50) is under 1 µM.

As for `COc1ccc(S(=O)(=O)N2CCN(CCc3ccc(F)cc3)CC2)cc1N1[C@@H]2CC[C@H]1CN(C(=O)c1ccc(F)cc1Cl)C2` [compound 046, (2-chloro-4-fluoro-phenyl)-[(1S,5R)-8-[5-[4-[2-(4-fluorophenyl)ethyl]piperazin-1-yl]sulfonyl-2-methoxy-phenyl]-3,8-diazabicyclo[3.2.1]octan-3-yl]methanone], the EC50 was under 1 µM.

With `CC(C)(NS(=O)(=O)c1cc(Cl)c(O)c(N2[C@@H]3CC[C@H]2CN(C(=O)c2ccc(F)cc2Cl)C3)c1)C(F)(F)F` [compound 105, 3-chloro-5-[(1S,5R)-3-(2-chloro-4-fluoro-benzoyl)-3,8-diazabicyclo[3.2.1]octan-8-yl]-4-hydroxy-N-(2,2,2-trifluoro-1,1-dimethyl-ethyl)benzenesulfonamide], the EC50 was under 1 µM.

`Cc1ccc(S(=O)(=O)N2CCN(CCc3ccc(F)cc3)CC2)cc1N1[C@@H]2CC[C@H]1CN(C(=O)c1ccc(F)cc1Cl)C2` [compound 116, (2-chloro-4-fluoro-phenyl)-[(1S,5R)-8-[5-[4-[2-(4-fluorophenyl)ethyl]piperazin-1-yl]sulfonyl-2-methyl-phenyl]-3,8-diazabicyclo[3.2.1]octan-3-yl]methanone] registered an EC50 of under 1 µM.

In the case of `CCCN(C)S(=O)(=O)c1ccc(OCC)c(N2[C@@H]3CC[C@H]2CN(C(=O)c2ccc(F)cc2Cl)C3)c1` [compound 029], the concentration for a half-maximal effect (EC50) was in the range of 1 to 10 µM.

The compound `COc1ccc(S(=O)(=O)N2CCC(=Cc3ccccc3)CC2)cc1N1[C@@H]2CC[C@H]1CN(C(=O)c1cc(F)c(F)cc1Cl)C2` [compound 053, [(1S,5R)-8-[5-[(4-benzylidene-1-piperidyl)sulfonyl]-2-methoxy-phenyl]-3,8-diazabicyclo[3.2.1]octan-3-yl]-(2-chloro-4,5-difluoro-phenyl)methanone] returned an EC50 of under 1 µM.

With `Cc1cc(S(=O)(=O)N2CCC(c3ccccc3)CC2)cc(N2[C@@H]3CC[C@H]2CN(C(=O)c2ccc(F)cc2Cl)C3)c1O` [compound 090, (2-chloro-4-fluoro-phenyl)-[(1S,5R)-8-[2-hydroxy-3-methyl-5-[(4-phenyl-1-piperidyl)sulfonyl]phenyl]-3,8-diazabicyclo[3.2.1]octan-3-yl]methanone], the EC50 was under 1 µM.

For `N#Cc1ccc(S(=O)(=O)N2CCC(c3ccccc3)CC2)cc1N1[C@@H]2CC[C@H]1CN(C(=O)c1ccc(F)cc1Cl)C2` [compound 125], the half-maximal effective concentration (EC50) was under 1 µM.
